“Also recorded” adds a separate entry of the source. Where two headings read alike, the source gives them in different places.
Tests used:
[1] = in vivo; settings: both, rat, po
Protocol: The 4-week rat study was conducted at dose levels of 0, 10, 50, 100, and 200 mg/kg/day by daily oral administration (gavage). […] The cause of death was not determined for animals that died.

[2] = target: OATP1B1 (Homo sapiens, UniProt Q9Y6L6); assay: Transporter inhibition, OATP1B1
[3] = 9-month (39 weeks) GLP chronic oral toxicity study in dogs; settings: both sexes, beagle, in vivo, dog, 9 months (39 weeks)
Protocol: (§1) The GLP-compliant studies each included 4 weeks of oral dosing followed by a 4-week recovery period in both rats and dogs followed by GLP-compliant chronic toxicity studies in rats (6 months of oral dosing) and dogs (9 months of oral dosing).
A subsequent GLP-compliant 9-month chronic dog study was conducted in beagle dogs at dosages of 0, 0.1, 0.5, and 1.5 mg/kg/day by daily oral capsule administration. No Compound 1-related changes in food consumption or body weights were observed during the dosing period.

[4] = tested on: CYP3A4; assay: CYP induction (mRNA) in human hepatocytes, CYP3A4; type: in vitro ADME; settings: 1, 3, and 10 μM
[5] = Metabolic stability in liver microsomes, monkey; type: in vitro ADME; settings: read-out: intrinsic clearance in liver microsomes (scaled)
[6] = dog, in vivo
[7] = In vitro metabolism of [14C]Compound 1 in liver cytosol and hepatocytes; type: in vitro ADME, rat, dog, monkey, and human
Text: (§2) In vitro biotransformation of Compound 1 primarily occurred at imidazolpyrrolopyrazinyl ethyl pyrrolidine moiety.

[8] = [14C]Compound 1 absorption and excretion in bile duct-cannulated rats; type: in vivo, Sprague-Dawley male rats
[9] = Metabolic stability in liver microsomes, rat; type: in vitro ADME; settings: read-out: intrinsic clearance in liver microsomes (scaled) (converted)
[10] = Photostability; type: physicochemical; settings: preclinical studies
Text: In repeated-dose oral toxicity studies in rats and dogs of 6 and 9 months duration, respectively, no evidence of skin or ocular toxicity has been observed.

[11] = target: MATEK (Homo sapiens, UniProt Q86VL8); assay: Transporter inhibition, MATEK
MATEK, sequence (Q86VL8 1-566 isoform Q86VL8-3): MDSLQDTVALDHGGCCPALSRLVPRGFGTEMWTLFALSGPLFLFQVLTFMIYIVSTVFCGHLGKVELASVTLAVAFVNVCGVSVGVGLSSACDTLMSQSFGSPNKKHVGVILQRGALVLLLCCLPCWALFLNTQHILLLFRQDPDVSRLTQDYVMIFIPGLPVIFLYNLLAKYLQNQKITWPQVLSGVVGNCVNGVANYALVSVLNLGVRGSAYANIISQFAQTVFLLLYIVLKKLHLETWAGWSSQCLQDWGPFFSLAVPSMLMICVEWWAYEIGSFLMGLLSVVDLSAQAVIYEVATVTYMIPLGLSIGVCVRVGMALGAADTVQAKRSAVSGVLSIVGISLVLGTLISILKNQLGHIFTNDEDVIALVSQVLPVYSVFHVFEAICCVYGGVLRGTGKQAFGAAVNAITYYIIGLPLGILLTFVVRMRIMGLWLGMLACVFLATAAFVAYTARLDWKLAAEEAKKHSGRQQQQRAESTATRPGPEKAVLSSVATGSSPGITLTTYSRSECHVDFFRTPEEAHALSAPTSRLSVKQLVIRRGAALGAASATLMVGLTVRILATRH

[12] = Safety pharmacology in dogs (mean arterial pressure, heart rate); settings: dog, in vivo; read-out: Cmax at which effects on mean arterial pressure and heart rate begin
Protocol: Compound 1 was tested in a battery of safety pharmacology assays.

[13] = Metabolic stability in hepatocytes, dog; type: in vitro ADME; settings: read-out: intrinsic clearance in hepatocytes (converted)
[14] = tested on: CYP1A2; assay: CYP induction (mRNA) in human hepatocytes, CYP1A2; type: in vitro ADME; settings: 1, 3, and 10 μM
[15] = Clinical safety, Study M13-401
[16] = target: CYP2D6 (Homo sapiens, UniProt P10635); assay: CYP inhibition in human liver microsomes, CYP2D6
CYP2D6, sequence (P10635 whole entry): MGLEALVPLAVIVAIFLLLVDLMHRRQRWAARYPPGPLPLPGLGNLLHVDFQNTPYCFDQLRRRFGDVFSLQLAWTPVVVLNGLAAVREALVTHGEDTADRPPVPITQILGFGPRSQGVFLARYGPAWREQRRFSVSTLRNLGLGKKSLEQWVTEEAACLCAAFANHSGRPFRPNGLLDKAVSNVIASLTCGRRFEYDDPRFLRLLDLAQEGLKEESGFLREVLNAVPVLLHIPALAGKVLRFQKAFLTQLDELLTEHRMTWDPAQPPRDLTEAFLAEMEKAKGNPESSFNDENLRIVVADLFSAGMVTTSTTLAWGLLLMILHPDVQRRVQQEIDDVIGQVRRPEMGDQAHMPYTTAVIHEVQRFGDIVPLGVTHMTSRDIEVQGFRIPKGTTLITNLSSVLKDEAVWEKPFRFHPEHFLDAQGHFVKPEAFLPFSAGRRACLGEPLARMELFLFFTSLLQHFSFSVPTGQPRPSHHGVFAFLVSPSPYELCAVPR

[17] = target: OCT1 (Homo sapiens, UniProt O15245); assay: Transporter inhibition, OCT1; settings: up to 30 μM
OCT1, sequence (O15245 whole entry): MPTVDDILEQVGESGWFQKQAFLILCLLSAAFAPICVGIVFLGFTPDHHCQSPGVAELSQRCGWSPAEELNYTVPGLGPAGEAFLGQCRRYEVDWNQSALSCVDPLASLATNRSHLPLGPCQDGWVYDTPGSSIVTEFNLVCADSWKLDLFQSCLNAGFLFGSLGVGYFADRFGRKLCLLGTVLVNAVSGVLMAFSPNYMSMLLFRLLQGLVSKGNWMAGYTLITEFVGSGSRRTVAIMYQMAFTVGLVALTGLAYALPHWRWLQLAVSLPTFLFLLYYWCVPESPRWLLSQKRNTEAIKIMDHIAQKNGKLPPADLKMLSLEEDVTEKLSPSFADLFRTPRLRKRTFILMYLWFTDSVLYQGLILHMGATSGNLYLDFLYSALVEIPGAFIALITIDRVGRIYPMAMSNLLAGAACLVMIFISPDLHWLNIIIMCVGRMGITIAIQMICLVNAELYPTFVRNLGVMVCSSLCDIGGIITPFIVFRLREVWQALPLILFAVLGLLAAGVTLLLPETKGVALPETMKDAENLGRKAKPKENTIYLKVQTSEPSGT

[18] = 6-month (26 weeks) GLP chronic oral toxicity study in rats; type: in vivo, rat; settings: for AUC(0-t) / Cmax: po, rat 20 mg/kg/day; for AUC(0-t): read-out: AUC0-24 at NOAEL; for Cmax: read-out: Cmax at NOAEL
Protocol: as §1
The 6-month chronic rat study was conducted at dose levels of 0, 5, 20, and 50 mg/kg/day by daily oral administration (gavage).

[19] = Metabolic stability in liver microsomes, human; type: in vitro ADME; settings: read-out: intrinsic clearance in liver microsomes (converted)
[20] = tested on: IL-15 signaling; assay: Whole blood assay IL-15 pSTAT5 CD3+; type: cell-based
[21] = target: CYP3A4 (Homo sapiens, UniProt P08684); assay: Metabolism by recombinant CYP3A4; type: in vitro ADME
CYP3A4 (Homo sapiens, UniProt P08684), sequence (P08684 whole entry): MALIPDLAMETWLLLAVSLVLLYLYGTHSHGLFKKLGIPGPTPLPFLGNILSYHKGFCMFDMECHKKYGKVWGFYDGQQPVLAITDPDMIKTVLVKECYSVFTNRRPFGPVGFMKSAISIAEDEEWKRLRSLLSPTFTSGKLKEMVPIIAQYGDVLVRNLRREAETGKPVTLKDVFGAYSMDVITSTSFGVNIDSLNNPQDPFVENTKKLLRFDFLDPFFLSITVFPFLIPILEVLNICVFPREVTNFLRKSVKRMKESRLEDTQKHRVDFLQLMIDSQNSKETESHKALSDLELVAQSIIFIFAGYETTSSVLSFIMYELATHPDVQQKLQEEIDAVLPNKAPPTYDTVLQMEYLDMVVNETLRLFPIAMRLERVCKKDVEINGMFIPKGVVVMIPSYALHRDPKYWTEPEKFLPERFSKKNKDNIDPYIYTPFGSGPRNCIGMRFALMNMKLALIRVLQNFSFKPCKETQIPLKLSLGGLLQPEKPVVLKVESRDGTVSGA
Text: as §2

[22] = target: Rock1 (Homo sapiens, UniProt Q13464); assay: Kinase panel, Rock1; type: biochemical
Rock1, sequence (Q13464 whole entry, species assumed): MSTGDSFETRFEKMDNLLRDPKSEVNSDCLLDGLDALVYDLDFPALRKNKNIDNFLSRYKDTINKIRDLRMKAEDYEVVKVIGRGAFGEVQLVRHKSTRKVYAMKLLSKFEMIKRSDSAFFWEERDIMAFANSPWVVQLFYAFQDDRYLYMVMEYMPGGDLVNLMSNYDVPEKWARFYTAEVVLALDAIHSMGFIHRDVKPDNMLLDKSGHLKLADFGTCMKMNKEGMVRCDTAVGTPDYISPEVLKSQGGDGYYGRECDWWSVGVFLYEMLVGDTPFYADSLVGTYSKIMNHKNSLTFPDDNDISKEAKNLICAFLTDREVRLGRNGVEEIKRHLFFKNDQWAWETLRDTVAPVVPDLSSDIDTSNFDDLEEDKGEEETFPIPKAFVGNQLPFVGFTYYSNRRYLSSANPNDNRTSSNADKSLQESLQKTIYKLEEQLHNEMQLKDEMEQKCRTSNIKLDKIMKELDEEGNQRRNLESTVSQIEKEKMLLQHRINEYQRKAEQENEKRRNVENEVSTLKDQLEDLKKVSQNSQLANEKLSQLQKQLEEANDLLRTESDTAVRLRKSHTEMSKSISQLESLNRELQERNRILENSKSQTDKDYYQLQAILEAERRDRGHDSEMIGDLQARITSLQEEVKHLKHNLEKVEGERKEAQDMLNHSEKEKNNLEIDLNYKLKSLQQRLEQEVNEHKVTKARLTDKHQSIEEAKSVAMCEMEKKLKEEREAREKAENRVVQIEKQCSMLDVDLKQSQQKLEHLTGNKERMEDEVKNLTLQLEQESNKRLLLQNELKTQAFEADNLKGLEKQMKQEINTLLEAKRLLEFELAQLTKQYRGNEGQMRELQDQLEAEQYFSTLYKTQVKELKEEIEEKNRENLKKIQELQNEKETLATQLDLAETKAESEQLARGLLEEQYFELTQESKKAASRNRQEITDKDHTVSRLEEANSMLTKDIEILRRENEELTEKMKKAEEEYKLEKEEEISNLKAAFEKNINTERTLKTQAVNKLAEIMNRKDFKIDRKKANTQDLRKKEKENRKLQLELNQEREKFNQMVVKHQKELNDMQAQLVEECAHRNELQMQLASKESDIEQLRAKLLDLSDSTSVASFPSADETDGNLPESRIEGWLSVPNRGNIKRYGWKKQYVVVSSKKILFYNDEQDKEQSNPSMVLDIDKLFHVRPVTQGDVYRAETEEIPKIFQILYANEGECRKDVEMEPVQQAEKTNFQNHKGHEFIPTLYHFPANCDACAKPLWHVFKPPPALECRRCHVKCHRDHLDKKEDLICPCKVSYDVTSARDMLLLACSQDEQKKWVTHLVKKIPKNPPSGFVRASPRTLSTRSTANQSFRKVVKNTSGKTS

[23] = in vivo; settings: dog; for AUC(0-inf): AUC0-∞
[24] = target: OAT1 (Homo sapiens, UniProt Q4U2R8); assay: Transporter inhibition, OAT1; settings: up to 30 μM
OAT1, sequence (Q4U2R8 whole entry): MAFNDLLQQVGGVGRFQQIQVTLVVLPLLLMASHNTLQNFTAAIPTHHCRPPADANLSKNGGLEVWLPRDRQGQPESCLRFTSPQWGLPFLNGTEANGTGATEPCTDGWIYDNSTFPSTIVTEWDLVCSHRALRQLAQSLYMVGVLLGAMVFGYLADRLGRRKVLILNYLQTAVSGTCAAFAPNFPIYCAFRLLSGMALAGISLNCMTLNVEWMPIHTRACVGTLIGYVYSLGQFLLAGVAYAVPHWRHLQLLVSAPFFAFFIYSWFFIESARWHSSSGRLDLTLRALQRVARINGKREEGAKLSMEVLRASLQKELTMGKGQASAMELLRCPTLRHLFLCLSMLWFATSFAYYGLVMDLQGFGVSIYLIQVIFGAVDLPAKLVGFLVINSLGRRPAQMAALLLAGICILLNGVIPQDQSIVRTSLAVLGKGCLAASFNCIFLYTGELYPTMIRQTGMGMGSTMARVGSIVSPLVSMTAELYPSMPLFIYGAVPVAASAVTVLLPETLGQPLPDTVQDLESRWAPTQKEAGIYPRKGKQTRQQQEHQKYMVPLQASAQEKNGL

[25] = Pharmacokinetics across species; type: in vivo; settings: rat, monkey, dog, plasma
[26] = tested on: GMCSF-induced pSTAT5 (Jak2 signaling); assay: Ex vivo stimulation assay GM-CSF pSTAT5, orally dosed human; settings: 24 mg but not 12 mg oral, 1 hour post dose
[27] = tested on: all other CYPs; assay: Metabolism by all other recombinant CYPs; type: in vitro ADME
[28] = both, beagle, po, 0.5 mg/kg/day

OATP1B1, sequence (Q9Y6L6 whole entry): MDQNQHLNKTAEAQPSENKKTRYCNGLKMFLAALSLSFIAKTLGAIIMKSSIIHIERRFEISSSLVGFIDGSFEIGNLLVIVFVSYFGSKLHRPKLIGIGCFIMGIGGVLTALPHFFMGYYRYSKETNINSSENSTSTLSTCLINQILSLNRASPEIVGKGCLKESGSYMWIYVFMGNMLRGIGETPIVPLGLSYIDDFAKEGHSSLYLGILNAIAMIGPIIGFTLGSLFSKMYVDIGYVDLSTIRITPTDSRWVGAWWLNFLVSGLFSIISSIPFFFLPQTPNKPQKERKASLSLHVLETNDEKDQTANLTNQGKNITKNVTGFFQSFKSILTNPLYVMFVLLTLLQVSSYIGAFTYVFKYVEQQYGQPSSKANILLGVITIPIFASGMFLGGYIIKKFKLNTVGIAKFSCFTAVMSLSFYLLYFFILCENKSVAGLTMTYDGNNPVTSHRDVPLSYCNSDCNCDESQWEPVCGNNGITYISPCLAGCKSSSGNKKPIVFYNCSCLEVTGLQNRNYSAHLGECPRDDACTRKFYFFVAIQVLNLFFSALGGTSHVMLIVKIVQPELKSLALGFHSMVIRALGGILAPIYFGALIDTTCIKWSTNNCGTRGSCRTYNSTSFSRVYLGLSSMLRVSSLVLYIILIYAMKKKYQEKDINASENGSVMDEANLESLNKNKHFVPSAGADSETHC

CC[C@@H]1CN(C(=O)NCC(F)(F)F)C[C@@H]1c1cnc2cnc3[nH]ccc3n12 [Compound 1, (3S,4R)-3-ethyl-4-(3H-imidazo[1,2-a]pyrrolo[2,3-e]pyrazin-8-yl)-N-(2,2,2-trifluoroethyl)pyrrolidine-1-carboxamide]
NOAEL at 4 weeks [1]: 50 mg/kg/day
IC50 [2]: 48000 nM
NOAEL at 9 months [3]: 1.5 mg/kg/day
mRNA expression of CYP3A4 [4]: did not increase
CLint scaled at 0.5 μM [5]: < 26.7 mL/min/kg
AUC lower in fed than fasted animals [6]: approximately 40%
Cmax lower in fed than fasted animals [6]: approximately 3 fold
Vc ([6]; iv, 1 mg/kg): 1.9 L/kg
Vβ ([6]; iv, 1 mg/kg): 2.9 L/kg
F ([6]; po, 5 mg/kg): 65.8 (12.1) %
metabolism in liver cytosol incubations ([7]; liver cytosol): No metabolism
turnover in hepatocytes ([7]; rat, dog, monkey, human hepatocytes): < 10%
mean total recovery of dosed radioactivity ([8]; intravenous): 96.0%
radioactivity excreted into bile ([8]; intravenous): 49.7 % of dose
radioactivity excreted into urine ([8]; intravenous): 23.7 % of dose
mean total recovery of dosed radioactivity ([8]; oral): 96.8%
parent drug excreted unchanged in urine ([8]; oral): 9%
radioactivity excreted into bile ([8]; oral): 52.6 % of dose
radioactivity excreted into urine ([8]; oral): 11.1 % of dose
dose absorbed (radioactivity in bile and urine) ([8]; single oral dose 3 mg/kg): at least 63.7%
CLint scaled at 0.5 μM [9]: 84.7 mL/min/kg
photostability [10]: photoinstability
IC50 [11]: > 15000 nM
Cmax [12]: 420 ng/mL
CLint scaled at 1 μM [13]: 6.92 mL/min/kg
mRNA expression of CYP1A2 [14]: did not increase
effects on blood pressure and heart rate ([15]; FIH study, through highest single dose of 48 mg): no effects
subjects meeting predefined criteria for potentially clinically significant QT or QTcF interval ([15]; Study M13-401): No subjects
adverse events severe, serious, or fatal ([15]; Study M13-401 Substudy 1 and 2): None
dose-limiting toxicities ([15]; healthy volunteers, single doses 1 to 48 mg and 3, 6, 12, 24 mg twice daily 14 days): no dose-limiting toxicities
time-dependent inhibition of CYP2D6 ([16]; human liver microsomes): No obvious time-dependent inhibition
inhibition of CYP2D6 ([16]; up to 30 μM): did not inhibit; also recorded: not an inhibitor
inhibition of OCT1 uptake [17]: No significant inhibition
AUC(0-t) ([18]; female, in vivo, females): 6840 ng·h/mL
Cmax ([18]; female, in vivo, females): 2240 ng/mL
NOAEL at 6 months ([18]; in vivo, rat, 6 months (26 weeks) oral gavage): 20 mg/kg/day
AUC(0-t) ([18]; male, in vivo, males): 3830 ng·h/mL
Cmax ([18]; male, in vivo, males): 1110 ng/mL
Adverse Findings ([18]; rat, 26 weeks, 50 mg/kg/day): 50: Kidneys-tubular
CLint scaled at 0.5 μM [19]: 31.2 mL/min/kg
IC50 ([20]; read-out: IL-15 (pSTAT5, CD3+)): 16 nM
IC50 ([20]; whole blood, read-out: IC50 IL-15 pSTAT5 CD3+): 16 nM
percentage of parent remaining [21]: 36.0%
IC50 [22]: 550 nM
AUC [23, 28]: 359 ng·h/mL
AUC at 28 days [23, 28]: 339 ng·h/mL
AUC ([23]; both, beagle, po, 3 mg/kg/day): 2200 ng·h/mL
AUC at 28 days ([23]; both, beagle, po, 3 mg/kg/day): 2140 ng·h/mL
Cmax ([23]; both, beagle, po, 3 mg/kg/day): 617 ng/mL
AUC ([23]; both, beagle, po, 5 mg/kg/day): 4430 ng·h/mL
AUC at 28 days ([23]; both, beagle, po, 5 mg/kg/day): 4100 ng·h/mL
Cmax ([23]; both, beagle, po, 5 mg/kg/day): 1240 ng/mL
Vd ([23]; iv, 1 mg/kg): 2.6 L/kg
clearance ([23]; iv, 1 mg/kg): 11 mL/min/kg
half-life ([23]; iv, 1 mg/kg): 3.1 h
AUC(0-inf) ([23]; iv, 1 mg/kg): 1610 ng·h/mL
half-life ([23]; po, 1 mg/kg): 2.8 h
AUC(0-inf) ([23]; po, 1 mg/kg): 1240 ng·h/mL
Cmax ([23]; po, 1 mg/kg): 349 ng/mL
AUC(0-inf) ([23]; po, 5 mg/kg): 5310 ng·h/mL
inhibition of OAT1 uptake [24]: No significant inhibition
Vd ([25]; iv, all species, read-out: Vss): 1.6 to 2.7 L/kg
half-life ([25]; oral, read-out: plasma elimination half-life after oral dosing): 3 to 5 h
inhibition of GMCSF-induced pSTAT5 [26]: partial inhibition
percentage of parent remaining [27]: greater than 98.0%

Reference: US20150118229A1, “JAK1 SELECTIVE INHIBITOR AND USES THEREOF” (ABBVIE INC., priority 2013, published 2015)
